These are literature values, as cited in patent publication US20240408115A1, “COMPOSITION AND METHODS OF TREATMENT USING […] - ENHANCED SUPPLEMENTATION” (Xygenyx Inc., priority 2023, published 2024).

Non-standard residues stand in square brackets, D forms with d. Residues, ends and D or L forms follow the SMILES beside them. Cit = NC(=O)NCCC[C@H](N)C(=O)O

The conditions of series [1]: topical formulations, within four weeks of treatment.
The conditions of series [2]: in vivo.
The conditions of series [3]: topical, concentrations 0.5-5%.
The conditions of series [4]: dietary intake in equal portions.
For series [5] the following is noted: compared to α-tocopherol = 1.0.
The conditions of series [6]: in vivo. The source holds these as a separate data set.
For series [7] the following is noted: penetration enhancer for transdermal drugs.
The subject of series [8] is wide dynamic range neurons in the ventroposterolateral nucleus of the thalamus. The conditions noted are these: in vivo.
For series [9] the following is noted: dietary supplementation, doses up to 400 IU/day.
The next series has as its system F2-isoprostane. The conditions noted are these: large doses of 1600-3200 IU/day.

As to `CC[C@H](C)[C@H](NC(=O)[C@H](CC(=O)O)NC(=O)[C@@H](N)CCCCN)C(=O)N[C@@H](CCCNC(N)=O)C(N)=O` [Tripeptide-10 citrulline] (H-KDI[Cit]-NH2), the improvement of suppleness in [1] is no more than 54%.

With `CCNC(=O)CC[C@H](N)C(=O)O` [Theanine], the “dose considered safe and well-tolerated” value in series [2] is on record as “up to 400 mg per day”.

With `C=CCCCCCCCCC(=O)N[C@@H](Cc1ccccc1)C(=O)O` [UP, Undecylenoyl phenylalanine], the “time to skin lightening effects” value in [3] is no less than 7 days.

Turning to `Cc1c(O)cc2c(c1C)O[C@](C)(CCC[C@H](C)CCC[C@H](C)CCCC(C)C)CC2` [γ-tocopherol], the “concentration in vivo relative to α-tocopherol” value in series [4] is given as “roughly 10%”. In addition, the relative biological activity in series [5] is on record as 0.1.

As for “HGH: hormone comprising a peptide chain that is synthesized in the pituitary gland”, the biological half-life in series [6] is recorded as 10-20 minutes.

Regarding `CC12CCC(CC1)C(C)(C)O2` [eucalyptol, 1,8-epoxy-p-menthane], the “increase of transdermal drug uptake (factor)” value in [7] is given as “more than 10”.

Consider `CC(C)[C@@H]1CC[C@@H](C)C[C@H]1O` [Menthol], for which, in series [7], the “increase of transdermal drug uptake (factor)” value is no less than 10.

For `CCCCCc1cc(O)c2c(c1)OC(C)(C)C1CCC(C)=CC21` (stereo not drawn) [THC, Δ-9-tetrahydrocannabinol], in [8], the “potency in mediating pain relative to morphine” value is given as “ten times more powerful than morphine”.

As for `Cc1cc(O)cc2c1O[C@](C)(CCC[C@H](C)CCC[C@H](C)CCCC(C)C)CC2` [δ-tocopherol], the relative biological activity in series [5] was 0.03.

Take `Cc1c(C)c2c(c(C)c1O)CC[C@@](C)(CCC[C@H](C)CCC[C@H](C)CCCC(C)C)O2` [α-tocopherol]: in [9], the “reduction of risk of coronary disease” value is “up to 34%”. In series [9] (controlled trials), the “reduction of risk of developing neurodegenerative diseases such as Alzheimer's Syndrome or dementia” value is recorded as no more than 24%. In addition, the “blood plasma concentration of F2-isoprostane” value in the series with F2-isoprostane is given as “significantly lower”. In [5], the relative biological activity is 1.0.

On to `Cc1cc(O)c(C)c2c1O[C@](C)(CCC[C@H](C)CCC[C@H](C)CCCC(C)C)CC2` [β-tocopherol], for which, in series [5], the relative biological activity was 0.5.
